Experimental data published in US8163793B2, “Proline derivatives” (Hoffman-La Roche Inc., priority 2009, dated 2012).
Where a name gives a salt, the structure may show the parent alone.

Key:
[1] = biological target: Cat L (UniProt P07711); assay: Cathepsin enzyme inhibition assay (fluorogenic peptide substrate Z-Val-Val-Arg-AMC), Cathepsin L; type: biochemical, human and mouse; details: enzyme 1 nM, substrate 20 μM, pH 6.5; read-out: CatL IC50
Method: (§1) Cathepsin Enzyme Inhibition Assay
(§2) Enzyme activity is measured by observing the increase in fluorescence intensity caused by cleavage of a peptide substrate containing a fluorophore whose emission is quenched in the intact peptide.
(§3) Assay buffer: 100 mM potassium phosphate pH 6.5, EDTA-Na 5 mM, Triton X-100 0.001%, DDT 5 mM.
(§4) Enzymes (all at 1 nM): human and mouse Cathepsin S, Cat K, Cat B, Cat L Substrate (20 μM): Z-Val-Val-Arg-AMC, except for Cat K which uses Z-Leu-Arg-AMC (both from Bachem).
(§5) AMC=7-Amino-4-Methyl-Coumarin.
Excitation 360 nm, Emission 465 nm.
Enzyme is added to the substance dilutions in 96-well microtitre plates and the reaction is started with substrate. Fluorescence emission is measured over 20 minutes, during which time a linear increase is observed in the absence of inhibitor. IC50 are calculated by standard methods. The results are expressed in μM in the following table.

[2] = biological target: Cathepsin S (UniProt P25774); assay: Cathepsin enzyme inhibition assay (fluorogenic peptide substrate Z-Val-Val-Arg-AMC), Cathepsin S; type: biochemical, human and mouse; details: enzyme 1 nM, substrate 20 μM, pH 6.5; read-out: CatS IC50
Method: as §1, §2, §3, §4, §5
Enzyme is added to the substance dilutions in 96-well microtitre plates and the reaction is started with substrate. […] IC50 are calculated by standard methods. The results are expressed in μM in the following table.

Row | Structure (SMILES) | IC50 [1] [nM] | IC50 [2] [nM]
1 | CC(C)(C#N)NC(=O)[C@@H]1C[C@@H](S(=O)(=O)c2ccccc2Cl)CN1C(=O)OC(C)(C)C [Example 33, (2S,4R)-4-(2-Chloro-benzenesulfonyl)-2-[(cyano-dimethyl-methyl)-carbamoyl]-pyrrolidine-1-carboxylic acid tert-butyl ester] | ≥ 25000 | 675
2 | CC(C)(C)OC(=O)N1C[C@H](S(=O)(=O)c2ccccc2Cl)C[C@H]1C(=O)NC1(C#N)CCC1 [Example 34, (2S,4R)-4-(2-Chloro-benzenesulfonyl)-2-(1-cyano-cyclobutylcarbamoyl)-pyrrolidine-1-carboxylic acid tert-butyl ester] | ≥ 25000 | 766
3 | CC(C)(C)OC(=O)N1C[C@H](S(=O)(=O)c2ccccc2Cl)C[C@H]1C(=O)NC1(C#N)CCCCC1 [Example 35, (2S,4R)-4-(2-Chloro-benzenesulfonyl)-2-(1-cyano-cyclohexylcarbamoyl)-pyrrolidine-1-carboxylic acid tert-butyl ester] | ≥ 25000 | 4100
4 | CC(C)(C)OC(=O)N1C[C@H](S(=O)(=O)c2ccccc2Cl)C[C@H]1C(=O)NC(C#N)c1ccccc1 (stereo partly drawn) [Example 36, (2S,4R)-4-(2-Chloro-benzenesulfonyl)-2-[(cyano-phenyl-methyl)-carbamoyl]-pyrrolidine-1-carboxylic acid tert-butyl ester] | 1270 | 0.5
5 | CC(C)(C)OC(=O)N1C[C@H](S(=O)(=O)c2ccccc2Cl)C[C@H]1C(=O)NC(C)(C#N)c1ccccc1 (stereo partly drawn) [Example 37, (2S,4R)-4-(2-Chloro-benzenesulfonyl)-2-[(cyano-methyl-phenyl-methyl)-carbamoyl]-pyrrolidine-1-carboxylic acid tert-butyl ester] | ≥ 25000 | 1030
6 | CC(C)(C)OC(=O)N1C[C@H](S(=O)(=O)c2ccccc2C(F)(F)F)C[C@H]1C(=O)NC(C#N)C1CC1 (stereo partly drawn) [Example 38, (2S,4R)-2-[(Cyano-cyclopropyl-methyl)-carbamoyl]-4-(2-trifluoromethyl-benzenesulfonyl)-pyrrolidine-1-carboxylic acid tert-butyl ester] | ≥ 25000 | 5
7 | Cc1ccc(S(=O)(=O)[C@@H]2C[C@@H](C(=O)NC3(C#N)CC3)N(C(=O)OC(C)(C)C)C2)c(C)c1 [Example 39, (2S,4R)-2-(1-Cyano-cyclopropylcarbamoyl)-4-(2,4-dimethyl-benzenesulfonyl)-pyrrolidine-1-carboxylic acid tert-butyl ester] | 50200 | 2.2
8 | Cc1cc(Cl)ccc1S(=O)(=O)[C@@H]1C[C@@H](C(=O)NC2(C#N)CC2)N(C(=O)OC(C)(C)C)C1 [Example 40, (2S,4R)-4-(4-Chloro-2-methyl-benzenesulfonyl)-2-(1-cyano-cyclopropylcarbamoyl)-pyrrolidine-1-carboxylic acid tert-butyl ester] | 41400 | 5.2
9 | CC(C)(C)OC(=O)N1C[C@H](S(=O)(=O)c2cccc(Cl)c2Cl)C[C@H]1C(=O)NC1(C#N)CC1 [Example 41, (2S,4R)-2-(1-Cyano-cyclopropylcarbamoyl)-4-(2,3-dichloro-benzenesulfonyl)-pyrrolidine-1-carboxylic acid tert-butyl ester] | ≥ 25000 | 31.2
10 | CC(C)(C#N)NC(=O)[C@@H]1C[C@@H](S(=O)(=O)c2ccccc2Cl)CN1 [Example 44, (2S,4R)-4-(2-Chloro-benzenesulfonyl)-pyrrolidine-2-carboxylic acid (cyano-dimethyl-methyl)-amide Hydrochloride] | ≥ 25000 | 152
11 | N#CC1(NC(=O)[C@@H]2C[C@@H](S(=O)(=O)c3ccccc3Cl)CN2)CCCCC1 [Example 46, (2S,4R)-4-(2-Chloro-benzenesulfonyl)-pyrrolidine-2-carboxylic acid (1-cyano-cyclohexyl)-amide Hydrochloride] | ≥ 25000 | 208
12 | CC(C#N)(NC(=O)[C@@H]1C[C@@H](S(=O)(=O)c2ccccc2Cl)CN1)c1ccccc1 (stereo partly drawn) [Example 48, (2S,4R)-4-(2-Chloro-benzenesulfonyl)-pyrrolidine-2-carboxylic acid (cyano-methyl-phenyl-methyl)-amide Hydrochloride] | ≥ 25000 | 235

Other lines, results leading:

Row | IC50 [1] [nM] | IC50 [2] [nM] | Structure (SMILES)
13 | ≥ 25000 | 0.9 | Cc1ccc(=O)n(-c2ccc(S(=O)(=O)[C@H]3CN[C@H](C(=O)NC4(C#N)CC4)C3)c(C(F)(F)F)c2)n1 [Example 23, (2S,4R)-4-[4-(3-M ethyl-6-oxo-6H-pyridazin-1-yl)-2-trifluoromethyl-benzenesulfonyl]-pyrrolidine-2-carboxylic acid (1-cyano-cyclopropyl)-amide hydrochloride]
14 | ≥ 25000 | 2.6 | Cc1nccn1-c1ccc(S(=O)(=O)[C@H]2CN[C@H](C(=O)NC3(C#N)CC3)C2)c(C(F)(F)F)c1 [Example 24, (2S,4R)-4-[4-(2-M ethyl-imidazol-1-yl)-2-trifluoromethyl-benzenesulfonyl]-pyrrolidine-2-carboxylic acid (1-cyano-cyclopropyl)-amide hydrochloride]
15 | ≥ 25000 | 2.3 | N#CC1(NC(=O)[C@@H]2C[C@@H](S(=O)(=O)c3ccc(-n4ccnc4-c4ccccc4)cc3C(F)(F)F)CN2)CC1 [Example 25, (2S,4R)-4-[4-(2-Phenyl-imidazol-1-yl)-2-trifluoromethyl-benzenesulfonyl]-pyrrolidine-2-carboxylic acid (1-cyano-cyclopropyl)-amide hydrochloride]
16 | ≥ 25000 | 2.8 | N#CC1(NC(=O)[C@@H]2C[C@@H](S(=O)(=O)c3ccc(N4CCCC4=O)cc3C(F)(F)F)CN2)CC1 [Example 26, (2S,4R)-4-[4-(2-Oxo-pyrrolidin-1-yl)-2-trifluoromethyl-benzenesulfonyl]-pyrrolidine-2-carboxylic acid (1-cyano-cyclopropyl)-amide hydrochloride]
17 | ≥ 25000 | 2.2 | N#CC1(NC(=O)[C@@H]2C[C@@H](S(=O)(=O)c3ccc(N4CCOC4=O)cc3C(F)(F)F)CN2)CC1 [Example 27, (2S,4R)-4-[4-(2-oxo-oxazolidin-3-yl)-2-trifluoromethyl-benzenesulfonyl]-pyrrolidine-2-carboxylic acid (1-cyano-cyclopropyl)-amide hydrochloride]
18 | ≥ 25000 | 1.5 | N#CC1(NC(=O)[C@@H]2C[C@@H](S(=O)(=O)c3ccc(N4CCC(F)(F)C4)cc3C(F)(F)F)CN2)CC1 [Example 28, (2S,4R)-4-[4-(3,3-Difluoro-pyrrolidin-1-yl)-2-trifluoromethyl-benzenesulfonyl]-pyrrolidine-2-carboxylic acid (1-cyano-cyclopropyl)-amide hydrochloride]
19 | 39900 | 0.8 | N#CC1(NC(=O)[C@@H]2C[C@@H](S(=O)(=O)c3ccc(N4CCOCC4)cc3C(F)(F)F)CN2)CC1 [Example 29, (2S,4R)-4-(4-Morpholin-4-yl-2-trifluoromethyl-benzenesulfonyl)-pyrrolidine-2-carboxylic acid (1-cyano-cyclopropyl)-amide hydrochloride]
20 | ≥ 25000 | 3 | N#CC1(NC(=O)[C@@H]2C[C@@H](S(=O)(=O)c3ccc(N4CCOCC4=O)cc3C(F)(F)F)CN2)CC1 [Example 30, (2S,4R)-4-[4-(3-Oxo-morpholin-4-yl)-2-trifluoromethyl-benzenesulfonyl]-pyrrolidine-2-carboxylic acid (1-cyano-cyclopropyl)-amide hydrochloride]
21 | ≥ 25000 | 2 | N#CC1(NC(=O)[C@@H]2C[C@@H](S(=O)(=O)c3ccc(-n4ccccc4=O)cc3C(F)(F)F)CN2)CC1 [Example 31, (2S,4R)-4-[4-(2-Oxo-2H-pyridin-1-yl)-2-trifluoromethyl-benzenesulfonyl]-pyrrolidine-2-carboxylic acid (1-cyano-cyclopropyl)-amide hydrochloride]
22 | ≥ 25000 | 5 | N#CC1(NC(=O)[C@@H]2C[C@@H](S(=O)(=O)c3ccc(-n4ccncc4=O)cc3C(F)(F)F)CN2)CC1 [Example 32, (2S,4R)-4-[4-(2-Oxo-2H-pyrazin-1-yl)-2-trifluoromethyl-benzenesulfonyl]-pyrrolidine-2-carboxylic acid (1-cyano-cyclopropyl)-amide hydrochloride]
23 | ≥ 25000 | 2.2 | N#CC1(NC(=O)[C@@H]2C[C@@H](S(=O)(=O)c3ccccc3C(F)(F)F)CN2)CC1 [Example 43, (2S,4R)-4-(2-Trifluoromethyl-benzenesulfonyl)-pyrrolidine-2-carboxylic acid (1-cyano-cyclopropyl)-amide]
24 | ≥ 25000 | 378 | N#CC1(NC(=O)[C@@H]2C[C@@H](S(=O)(=O)c3ccccc3Cl)CN2)CCC1 [Example 45, (2S,4R)-4-(2-Chloro-benzenesulfonyl)-pyrrolidine-2-carboxylic acid (1-cyano-cyclobutyl)-amide Hydrochloride]
25 | 6920 | 1.8 | Cc1ccc(S(=O)(=O)[C@H]2CN[C@H](C(=O)NC3(C#N)CC3)C2)c(C)c1 [Example 49, (2S,4R)-4-(2,4-Dimethyl-benzenesulfonyl)-pyrrolidine-2-carboxylic acid (1-cyano-cyclopropyl)-amide Hydrochloride]
